Values belong to the compound of their own block, whether it stands above or below them.
Target: SGLT2 (Homo sapiens (Human), UniProt P31639)
Assay: In vitro SGLT2 inhibitory activity: 1-NBDG uptake by CHO-SGLT2 cells
Assay type: cell-based
Details: for IC50: CHO-SGLT2 cells, 1-NBDG uptake, read-out: IC50 inhibiting SGLT2
Procedure: The effect of the compounds on SGLT2-mediated glucose uptake was investigated by establishing an SGLT2 overexpression cell model and using the fluorescent glucose (2-deoxy-1-[(7-nitro-2,1,3-benzoxadiazol-4-yl)amino]-D-glucose, 1-NBDG) tracer method to screen out candidate compounds with SGLT2 inhibitory activity.
The humanized SGLT2 overexpression cells (CHO-SGLT2) constructed from Chinese hamster ovary (CHO) cells were cultured in 1640 medium (Gibco) containing 10% fetal bovine serum (Gibco, 10270), subcultured at a ratio of 1:3, and replaced with new culture medium 3 times every week. Fluorescence detection cell culture plates and other culture flasks were purchased from Corning Company. […] Appropriate amounts of all compounds were weighed, prepared into 100 mM stock solutions with DMSO, and stored at 4° C. in the dark.
Before the 1-NBDG uptake test, CHO-SGLT2 cells were digested and seeded in a 96-well cell culture plate with a cell number of 40,000/well. After the cells were cultured for 48 h, the medium was discarded, and 100 μl of choline buffer was added to each well. After the cells were starved at 37° C. for 30 min, the choline buffer was discarded and 100 μl of the newly prepared Na^+ sodium buffer containing […] 1-NBDG and the test compounds (Compound) was added. The solvent DMSO was used as the negative control (Control) for the test compounds.
The Na^+ sodium buffer without 1-NBDG was used as the blank control (Blank). After 1 h of culture, the incubation solution was discarded. The cells were washed with choline buffer solution 3 times, and then 50 μl of neutral lysate was added to each well to lyse the cells on ice for 10 min. The fluorescence value of each well was detected using a multi-functional microplate reader at […].
At least 3 experimental replicates were set for each compound at indicated concentrations, and the data were expressed as mean±SEM. Uptake amount of 1-NBDG by cells=fluorescence value1-NBDG-fluorescence valueBlank. Inhibition rate on uptake amount of SGLT2 glucose (%)=(uptake amountcontrol−uptake amountcompound)/uptake amountcontrol×100%. Concentration-inhibition rate curves were plotted using Graphpad Prism software, and IC50 values were calculated accordingly.

Sequence of SGLT2 (P31639 whole entry): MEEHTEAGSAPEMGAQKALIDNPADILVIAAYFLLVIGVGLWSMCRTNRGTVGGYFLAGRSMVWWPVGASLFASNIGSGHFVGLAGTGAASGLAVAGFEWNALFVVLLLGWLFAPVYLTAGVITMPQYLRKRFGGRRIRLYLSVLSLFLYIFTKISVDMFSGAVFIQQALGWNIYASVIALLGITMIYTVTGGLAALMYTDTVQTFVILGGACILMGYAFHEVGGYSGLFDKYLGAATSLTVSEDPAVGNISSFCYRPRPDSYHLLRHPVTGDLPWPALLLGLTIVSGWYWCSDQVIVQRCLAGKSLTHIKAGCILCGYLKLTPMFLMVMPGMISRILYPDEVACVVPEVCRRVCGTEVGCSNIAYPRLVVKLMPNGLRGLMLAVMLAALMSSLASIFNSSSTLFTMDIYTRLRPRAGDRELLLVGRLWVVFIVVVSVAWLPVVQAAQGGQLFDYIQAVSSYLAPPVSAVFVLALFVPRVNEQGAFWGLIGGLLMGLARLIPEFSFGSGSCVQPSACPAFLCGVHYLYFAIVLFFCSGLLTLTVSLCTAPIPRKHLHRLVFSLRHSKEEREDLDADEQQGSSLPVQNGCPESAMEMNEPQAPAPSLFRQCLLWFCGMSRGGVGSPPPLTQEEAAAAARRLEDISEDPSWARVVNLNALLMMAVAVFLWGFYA

IC50: 1.01 nM
Compound: CS[C@H]1O[C@@H](c2ccc(C)c(Cc3ccc4c(c3)CC4)c2)[C@H](O)[C@@H](O)[C@@H]1O [Compound 12]

IC50: 2.26 nM
Compound: CS[C@H]1O[C@@H](c2cc3c(c(Cc4ccc5c(c4)OCCO5)c2)CCC3)[C@H](O)[C@@H](O)[C@@H]1O [Compound 5]

IC50: 3.32 nM
Compound: OC[C@H]1O[C@@H](c2ccc(F)c(Cc3ccc4c(c3)OCCO4)c2)[C@H](O)[C@@H](O)[C@@H]1O [Compound 27]

Compound: CCOc1ccc(Oc2cc([C@H]3O[C@H](CO)[C@@H](O)[C@H](O)[C@H]3O)ccc2Cl)cc1 [Compound 3, (2R,3R,4R,5S,6R)-2-[4-chloro-3-(4-ethoxyphenoxy)phenyl]-6-(hydroxymethyl)oxane-3,4,5-triol]
IC50: 6.75 nM | Inhibition rate of compounds on SGLT2 (%) (compound concentration 1 × 10^−5 mol/L): 96.4 ± 8.4% | Inhibition rate of compounds on SGLT2 (%) (compound concentration 5 × 10^−7 mol/L): 78.7 ± 1.9% | Inhibition rate of compounds on SGLT2 (%) (compound concentration 5 × 10^−8 mol/L): 71.7 ± 1.7% | Inhibition rate of compounds on SGLT2 (%) (compound concentration 5 × 10^−9 mol/L): 42.8 ± 2.3% | Inhibition rate of compounds on SGLT2 (%) (compound concentration 5 × 10^−10 mol/L): 8.7 ± 2.1% | Inhibition rate of compounds on SGLT2 (%) (compound concentration 5 × 10^−11 mol/L): 3.7 ± 4.2%

IC50: 0.356 nM
Compound: CS[C@H]1O[C@@H](c2ccc(C)c(Cc3ccc4c(c3)CCCO4)c2)[C@H](O)[C@@H](O)[C@@H]1O [Compound 8]

From patent US20250129055A1, “GLUCOSIDE DERIVATIVE, AND PREPARATION METHOD THEREFOR AND APPLICATION THEREOF” (BEIJING INCREASE INNOVATIVE DRUG CO., LTD., priority 2020, published 2025)
